Like-named read-outs stand apart in the source and are kept apart here.
Target: hPK-M2 (Homo sapiens, UniProt P14618)
Test: Luminescent pyruvate kinase-luciferase coupled assay (KinaseGlo)
Format: biochemical
Conditions: for activation at 57 µM: read-out: hPK, M2 Max. Res.
Protocol: Luminescent Pyruvate Kinase-Luciferase Coupled Assay.
Production of a luminescent signal based on the generation of ATP by pyruvate kinase was determined by using the ATP-dependent enzyme firefly luciferase. Three μL of substrate mix (at r.t.) in assay buffer (50 mM imidazole pH 7.2, 50 mM KCl, 7 mM MgCl2, 0.01% tween 20, 0.05% BSA) was dispensed into Kalypsys white solid bottom 1,536 well microtiter plates using a bottle-valve solenoid-based dispenser (Kalypsys). The final concentrations of substrates in the assay were 0.1 mM ADP and 0.5 mM PEP. […] Microtiter plates were incubated at r.t. for 1 hour and 2 uL of luciferase detection mix (Kinase-Glo, Promega at 4° C. protected from light) was added and luminescence was read with a ViewLux (Perkin Elmer) using a 5 second exposure/plate. Data was normalized for AC50 values to control columns containing uninhibited enzyme (n), and AC100 inhibition (i) according the following equation: Activation (%)=[(c−n)/(n−i)]*100 where c=compound, n=DMSO neutral, i=no enzyme control. […] Monitoring of activation was accomplished using enzyme at 3× the final concentration.

[1] = KinaseGlo, % activation at 57 μM of compound
[2] = luciferase-coupled assay, read-out: AC50
[3] = luminescent pyruvate kinase-luciferase coupled assay (KinaseGlo), tables, read-out: hPK, M2 AC50

Chain of hPK-M2 (P14618 whole entry): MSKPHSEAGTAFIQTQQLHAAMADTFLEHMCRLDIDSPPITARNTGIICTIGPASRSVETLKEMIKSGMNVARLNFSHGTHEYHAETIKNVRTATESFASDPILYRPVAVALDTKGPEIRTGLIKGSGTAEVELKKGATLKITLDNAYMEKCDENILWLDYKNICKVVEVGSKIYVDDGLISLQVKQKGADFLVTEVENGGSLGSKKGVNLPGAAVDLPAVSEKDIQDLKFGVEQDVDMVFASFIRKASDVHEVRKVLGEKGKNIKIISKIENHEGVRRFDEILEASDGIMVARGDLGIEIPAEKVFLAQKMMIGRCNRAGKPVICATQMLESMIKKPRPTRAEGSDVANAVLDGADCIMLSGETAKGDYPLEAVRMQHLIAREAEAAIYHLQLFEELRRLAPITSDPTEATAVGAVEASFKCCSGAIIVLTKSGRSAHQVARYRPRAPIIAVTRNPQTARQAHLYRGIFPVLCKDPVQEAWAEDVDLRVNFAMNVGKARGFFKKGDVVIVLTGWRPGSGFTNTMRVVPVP

Structure (SMILES) | activation at 57 µM [1] | AC50 [3] | further results
O=S(=O)(c1ccc2c(c1)OCCO2)N1CCN(S(=O)(=O)c2ccc3c(c2)OCCO3)CC1 [Compound 2, 1,4-bis(2,3-dihydrobenzo[b][1,4]dioxin-6-ylsulfonyl)piperazine] | 89.7 ± 2.2% |  | AC50 [2]: 0.27 µM
COc1ccc(S(=O)(=O)N2CCN(S(=O)(=O)c3ccc(OC)cc3)CC2)cc1 [Compound 3, 1,4-bis(4-methoxyphenylsulfonyl)piperazine] | 87.6 ± 16.2% | 0.171 µM | 
N#Cc1ccc(S(=O)(=O)N2CCN(S(=O)(=O)c3ccc4c(c3)OCCO4)CC2)cc1 [Compound 4, 4-(4-(2,3-dihydrobenzo[b][1,4]dioxin-6-ylsulfonyl)piperazin-1-ylsulfonyl)benzonitrile] | 44.1 ± 6.1% | 0.029 µM | 
O=S(=O)(c1ccc(Cl)cc1)N1CCN(S(=O)(=O)c2ccc3c(c2)OCCO3)CC1 [Compound 5, 1-(4-chlorophenylsulfonyl)-4-(2,3-dihydrobenzo[b][1,4]dioxin-6-ylsulfonyl)piperazine] | 99.6 ± 2.5% | 0.154 µM | 
O=S(=O)(c1ccc(F)cc1)N1CCN(S(=O)(=O)c2ccc3c(c2)OCCO3)CC1 [Compound 6, 1-(2,3-dihydrobenzo[b][1,4]dioxin-6-ylsulfonyl)-4-(4-fluorophenylsulfonyl)piperazine] | 99.7 ± 4.2% | 0.094 µM | 
O=S(=O)(c1ccc2c(c1)OCCO2)N1CCN(S(=O)(=O)c2ccccc2F)CC1 [Compound 8, 1-(2,3-dihydrobenzo[b][1,4]dioxin-6-ylsulfonyl)-4-(2-fluorophenylsulfonyl)piperazine] | 114 ± 4% | 0.089 µM | 
O=S(=O)(c1ccc2c(c1)OCCO2)N1CCN(S(=O)(=O)c2c(F)cccc2F)CC1 [Compound 9, 1-(2,6-difluorophenylsulfonyl)-4-(2,3-dihydrobenzo[b][1,4]dioxin-6-ylsulfonyl)piperazine] | 94.4 ± 2.8% |  | AC50 [2]: 0.065 ± 0.025 µM
O=S(=O)(c1ccc2c(c1)OCCO2)N1CCN(S(=O)(=O)c2cc(F)c(F)cc2F)CC1 [Compound 10, 1-(2,3-dihydrobenzo[b][1,4]dioxin-6-ylsulfonyl)-4-(2,4,5-trifluorophenylsulfonyl)piperazine] | 105 ± 7.6% | 0.09 µM | 
COc1cc(F)c(S(=O)(=O)N2CCN(S(=O)(=O)c3ccc4c(c3)OCCO4)CC2)c(F)c1 [Compound 11, 1-(2,6-difluoro-4-methoxyphenylsulfonyl)-4-(2,3-dihydrobenzo[b][1,4]dioxin-6-ylsulfonyl)piperazine] | 91.8 ± 9.6% | 0.028 µM | 
CCCc1cc(F)c(S(=O)(=O)N2CCN(S(=O)(=O)c3ccc4c(c3)OCCO4)CC2)cc1F [Compound 12, 1-(2,5-difluoro-4-propylphenylsulfonyl)-4-(2,3-dihydrobenzo[b][1,4]dioxin-6-ylsulfonyl)piperazine] | 69.2 ± 10.4% | 0.757 µM | PKM2 activation, result in words: diminished activity
O=S(=O)(c1ccc2c(c1)OCCO2)N1CCN(S(=O)(=O)c2c(F)ccc(O)c2F)CC1 [Compound 13, 3-(4-(2,3-dihydrobenzo[b][1,4]dioxin-6-ylsulfonyl)piperazin-1-ylsulfonyl)-2,4-difluorophenol] | 95.3 ± 8.4% |  | AC50 [2]: 0.052 ± 0.014 µM
O=S(=O)(c1ccc2c(c1)OCCO2)N1CCN(S(=O)(=O)c2ccc(F)cc2F)CC1 [Compound 14, 1-(2,4-difluorophenylsulfonyl)-4-(2,3-dihydrobenzo[b][1,4]dioxin-6-ylsulfonyl)piperazine] | 113 ± 6.3% | 0.124 µM | 
O=S(=O)(c1ccccc1)N1CCN(S(=O)(=O)c2ccc3c(c2)OCCO3)CC1 [Compound 15, 1-(2,3-dihydrobenzo[b][1,4]dioxin-6-ylsulfonyl)-4-(phenylsulfonyl)piperazine] | 108 ± 4.3% | 0.202 µM | 
O=S(=O)(c1cccc(C(F)(F)F)c1)N1CCN(S(=O)(=O)c2ccc3c(c2)OCCO3)CC1 [Compound 16, 1-(2,3-dihydrobenzo[b][1,4]dioxin-6-ylsulfonyl)-4-(3-(trifluoromethyl)phenylsulfonyl)piperazine] | 39.3 ± 6.2% | 0.209 µM | 
COc1cccc(S(=O)(=O)N2CCN(S(=O)(=O)c3ccc4c(c3)OCCO4)CC2)c1 [Compound 17, 1-(2,3-dihydrobenzo[b][1,4]dioxin-6-ylsulfonyl)-4-(3-methoxyphenylsulfonyl)piperazine] | 90 ± 4.5% | 0.113 µM | 
O=S(=O)(c1ccc2c(c1)OCCO2)N1CCN(S(=O)(=O)c2ccccn2)CC1 [Compound 18, 1-(2,3-dihydrobenzo[b][1,4]dioxin-6-ylsulfonyl)-4-(pyridin-2-ylsulfonyl)piperazine] | 103 ± 6.6% | 0.542 µM | 
O=S(=O)(c1ccc2c(c1)OCCO2)N1CCN(S(=O)(=O)c2cccc[n+]2[O-])CC1 [Compound 19, 2-(4-(2,3-dihydrobenzo[b][1,4]dioxin-6-ylsulfonyl)piperazin-1-ylsulfonyl)pyridine 1-oxide] | 81.5 ± 3.2% |  | AC50 [2]: 0.254 ± 0.047 µM; Emax (luciferase-coupled assay, relative to activation by FBP, read-out: maximum response): 104%
O=S(=O)(c1c(F)cccc1F)C1CCN(S(=O)(=O)c2ccc3c(c2)OCCO3)CC1 [Compound 20, 4-(2,6-difluorophenylsulfonyl)-1-(2,3-dihydrobenzo[b][1,4]dioxin-6-ylsulfonyl)piperidine] | 104 ± 5.1% | 0.254 µM | 
O=S(=O)(c1ccc2c(c1)OCO2)N1CCN(S(=O)(=O)c2c(F)cccc2F)CC1 [Compound 24, 1-(benzo[d][1,3]dioxol-5-ylsulfonyl)-4-(2,6-difluorophenylsulfonyl)piperazine] | 61 ± 1.2% | 0.191 µM | 
CN1CCOc2ccc(S(=O)(=O)N3CCN(S(=O)(=O)c4c(F)cccc4F)CC3)cc21 [Compound 25, 6-(4-(2,6-difluorophenylsulfonyl)piperazin-1-ylsulfonyl)-4-methyl-3,4-dihydro-2H-benzo[b][1,4]oxazine] |  | 2.71 µM | hPK, M2 Max. Res. [1]: 93.5 ± 5.9%

Further lines, with some results ahead:

activation at 57 µM [1] | AC50 [3] | Structure (SMILES) | further results
119 ± 5.4% | 0.093 µM | CC1(C)CCc2cc(S(=O)(=O)N3CCN(S(=O)(=O)c4c(F)cccc4F)CC3)ccc2O1 [Compound 27, 1-(2,6-difluorophenylsulfonyl)-4-(2,2-dimethylchroman-6-ylsulfonyl)piperazine] | 
91.1 ± 4.7% | 0.387 µM | Cn1ccc2cc(S(=O)(=O)N3CCN(S(=O)(=O)c4c(F)cccc4F)CC3)ccc21 [Compound 28, 5-(4-(2,6-difluorophenylsulfonyl)piperazin-1-ylsulfonyl)-1-methyl-1H-indole] | 
110 ± 5.4% | 0.863 µM | O=S(=O)(c1ccc2c(c1)OCCO2)C1CCN(S(=O)(=O)c2c(F)cccc2F)CC1 [Compound 30, 1-(2,6-difluorophenylsulfonyl)-4-(2,3-dihydrobenzo[b][1,4]dioxin-6-ylsulfonyl)piperidine] | 
120 ± 7.3% |  | O=S(=O)(c1ccc2c(c1)OCCO2)N1CCCN(S(=O)(=O)c2c(F)cccc2F)CC1 [Compound 31, 1-(2,6-difluorophenylsulfonyl)-4-(2,3-dihydrobenzo[b][1,4]dioxin-6-ylsulfonyl)-1,4-diazepane] | AC50 [2]: 0.866 µM
60.3 ± 20.6% |  | O=S(=O)(NCCNS(=O)(=O)c1c(F)cccc1F)c1ccc2c(c1)OCCO2 [Compound 32, N-(2-(2,6-difluorophenylsulfonamido)ethyl)-2,3-dihydrobenzo[b][1,4]dioxine-6-sulfonamide] | 
106 ± 5.1% | 3.85 ± 0.53 µM | O=S(=O)(NCCCNS(=O)(=O)c1c(F)cccc1F)c1ccc2c(c1)OCCO2 [Compound 33, N-(3-(2,6-difluorophenylsulfonamido)propyl)-2,3-dihydrobenzo[b][1,4]dioxine-6-sulfonamide] | 
113 ± 14.6% | 7.97 ± 4.05 µM | O=S(=O)(NCCCCNS(=O)(=O)c1c(F)cccc1F)c1ccc2c(c1)OCCO2 [Compound 34, N-(4-(2,6-difluorophenylsulfonamido)butyl)-2,3-dihydrobenzo[b][1,4]dioxine-6-sulfonamide] | 
114 ± 1.4% | 2.33 ± 0.16 µM | O=S(=O)(NCCCCCNS(=O)(=O)c1c(F)cccc1F)c1ccc2c(c1)OCCO2 [Compound 35, N-(5-(2,6-difluorophenylsulfonamido)pentyl)-2,3-dihydrobenzo[b][1,4]dioxine-6-sulfonamide] | 
110 ± 3% | 4.83 ± 0.31 µM | O=S(=O)(NCCCCCCNS(=O)(=O)c1c(F)cccc1F)c1ccc2c(c1)OCCO2 [Compound 36, N-(6-(2,6-difluorophenylsulfonamido)hexyl)-2,3-dihydrobenzo[b][1,4]dioxine-6-sulfonamide] | 
101 ± 1.9% | 3.69 ± 1.26 µM | O=S(=O)(NC1CCN(S(=O)(=O)c2c(F)cccc2F)CC1)c1ccc2c(c1)OCCO2 [Compound 39, N-(1-(2,6-difluorophenylsulfonyl)piperidin-4-yl)-2,3-dihydrobenzo[b][1,4]dioxine-6-sulfonamide] | 
99.6 ± 3.1% | 9 ± 4.5 µM | O=S(=O)(NC1CCN(S(=O)(=O)c2ccc3c(c2)OCCO3)CC1)c1c(F)cccc1F [Compound 40, N-(1-(2,3-dihydrobenzo[b][1,4]dioxin-6-ylsulfonyl)piperidin-4-yl)-2,6-difluorobenzenesulfonamide] | 

Source: patent publication US8937067B2, “Activators of human pyruvate kinase” (The United States of America, as represented by the …, priority 2008, dated 2015)
